Laboratory results: US8853242B2, “Nitrogenous-ring acylguanidine derivative” (Astellas Pharma Inc., priority 2009, dated 2014)
pKi: −log10 of the molar value.

Legend:
Male ICR mouse [1] = experiment: Hyperactivity (quantity of motion) induced by MK-801 in mice; type: in vivo; conditions: MK-801 0.3 mg/kg, P<0.05
Protocol: (§1) The improvement effect of compound of formula (I) on schizophrenia was evaluated by measuring the quantity of motion inhibited by administration of the compound in a model in which the symptoms were induced by methamphetamine (hereinafter abbreviated as MAP) and MK-801.
(§2) The animal was taken out of a breeding cage, orally administered with a test compound, and then placed into a cage for breeding. After 30 minutes, the animal was put into a cage for measurement, and the quantity of motion with the test compound alone was measured. Further, after 30 to 90 minutes, the animal was taken out, and subcutaneously or intraperitoneally administered with a drug for increasing the quantity of motion (MAP; 1.5 mg/kg or MK-801; 0.3 mg/kg, dissolved in physiological saline, respectively). Then, the quantity of motion for a certain period of time (60 minutes) was measured using a device for measuring the quantity of motion (CompACT AMS manufactured by Muromachi Kikai Co., Ltd.) by means of an infrared sensor.
For a normal mouse (a mouse administered with physiological saline) and a mouse administered with a drug for increasing the quantity of motion, a Student's T test was performed for evaluation for each interval. For a group administered with the test compound, an assay was performed using a solvent (vehicle) group and a Dunnett's T test. For the evaluation, if there was a significant difference (P<0.05), it was considered that there is an effect.

human 5-HT5A receptor = human 5-HT5A receptor (Homo sapiens (Human), UniProt P47898); experiment: Test on a human 5-HT5A receptor binding inhibition ([3H]5-CT); conditions: membrane from HEK293 cells expressing human 5-HT5A receptor, Ki calculated from IC50
Chain of human 5-HT5A receptor (P47898 whole entry): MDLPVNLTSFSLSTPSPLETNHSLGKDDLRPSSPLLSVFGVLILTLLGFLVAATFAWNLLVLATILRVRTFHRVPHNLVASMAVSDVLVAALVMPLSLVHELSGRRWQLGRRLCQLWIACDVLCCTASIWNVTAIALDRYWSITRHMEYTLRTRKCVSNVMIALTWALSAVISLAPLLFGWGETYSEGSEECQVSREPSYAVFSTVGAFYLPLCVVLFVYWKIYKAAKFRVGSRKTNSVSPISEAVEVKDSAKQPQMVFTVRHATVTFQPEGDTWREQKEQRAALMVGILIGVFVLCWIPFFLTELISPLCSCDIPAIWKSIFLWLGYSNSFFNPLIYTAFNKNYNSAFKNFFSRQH
Protocol: The ORF (open reading frame; protein coding region) of a human 5-HT5A receptor (Genbank AF498985) was cloned from a human hippocampus cDNA library, and then inserted into a pCR2.1 vector (Invitrogen), and Escherichia coli containing the plasmid was cultured in a large amount. Next, the full-length cDNA sequence of the human 5-HT5A receptor was analyzed, and recombined into a pCDNA3.1 vector (Invitrogen) as an expression vector and cultured in a large amount. HEK293 established cells (ATCC) derived from the human fetal kidney were seeded, the expression plasmid (1 μg) obtained above were added thereto with LIPOFECTAMINE 2000 (Invitrogen; 2 μl), the gene was transfected into HEK293 cells, and the expression cells were screened with a drug-resistant marker, Geneticin (G418 sulfate 500 μg/ml; Kanto Chemical Co., Inc.). Thus prepared recombinant cells which expressed the gene were cultured in a medium containing D-MEM (Dulbecco's modified eagle medium, Sigma), 10% FCS (Fetal calf serum: fetal bovine serum), 1% Pc./Sm (Penicillin/Streptomycin, Invitrogen), and 500 μg/ml G418 for 3 days. These experimental operations followed a manual for gene operation experiment and an instruction appended in a reagent, and the like, such as a known method (Sambrook, J. et al, Molecular Cloning-A Laboratory Manual”, Cold Spring Harabor laboratory, NY, 1989).
HEK293 cells for forced expressions of a human 5-HT5A receptor were cultured in a F500 plate, and scraped with a scraper. After centrifugation, the precipitate was collected, and an incubation buffer (50 mM Tris (HCl) (pH 7.4), 10 mM MgSO4, and 0.5 mM EDTA (ethylenediamine tetraacetic acid)) was added thereto. After homogenization, it was further centrifuged, and the incubation buffer was added to the precipitate, followed by thoroughly suspending. The operation was repeated, and protein concentration was measured, thereby completing preparation of the membrane.
A solution of the compound to be tested and 100 μM 5-CT (5-carboxamidetriptamine) in DMSO was added to a 96-well plate at 2 μl/well, suspended in an incubation buffer, and a membrane from HEK293 cells for forced expressions of a human 5-HT5A receptor prepared at 200 μg/ml was added at 100 μl/well. After incubation at room temperature for 15 minutes, a [^3H]5-CT solution (2 nM [^3H]5-CT, incubation buffer) was added thereto at 100 μl/well.
Separately, 100 μl of the solution was distributed into a liquid scintillation vial, and 2 ml of Aquasol II (registered trademark) was added thereto, followed by stirring. Then, radioactivity was measured by a liquid scintillation counter. It was incubated at 37° C. for 60 minutes. The reaction mixture was sucked into 96-well GF/C filter plate that had been pre-treated with 0.2% polyethyleneimine, and washed six times with an ice-cooled, 50 mM Tris (pH 7.5) buffer. The GF/C filter plate was dried.
Microscint TMPS (registered trademark) was added thereto at 40 μl/well. Radioactivity remaining on the GF/C filter plate was measured by a top counter.
The [^3H]5-CT binding inhibiting activity by the compound to be tested in each experiment was determined as an IC50 value with a radioactivity upon addition of DMSO alone being 0% inhibition, and a radioactivity upon addition of 1 μM 5-CT being 100% inhibition. Separately, Ki values were calculated from the Kd value of the [^3H]5-CT determined from Scatchard analysis, by the following equation. Ki=IC50(1+Concentraion of ligand added/Kd(4.95 nM))

Male ddY mouse = experiment: Spontaneous alternation behavior (Y-maze) induced by Scoporamine in mice; type: in vivo; conditions: Scoporamine 0.5 mg/kg i.p.
Protocol: The improvement effect of compound of formula (I) on cognitive impairment of dementia and schizophrenia was evaluated by a known test method as a model with short-term learning disorder.
After 10 to 30 minutes from oral administration of the test compound, 0.5 mg/kg of Scoporamine or 0.15 mg/kg of MK-801 (in the case of a normal group, physiological saline was administered) was intraperitoneally administered. After 20 minutes, the test was conducted. In addition, solvent (vehicle) was orally administered to the normal group (to which physiological saline was administered) and to the control group (to which 0.5 mg/kg of Scoporamine or 0.15 mg/kg of MK-801 was administered), when the test compound was administered.
A mouse was placed at the end of one arm of a Y-maze having arms with the same length in three directions, and then allowed to explore freely and the number of arm entries was counted for 8 minutes. Further, spontaneous alternation behavior was defined as entries into all three different arms on consecutive occasions, and the ratio of the number of instances of this behavior to the total number of the entries was calculated as an alternation rate by the following formula: Alternation rate(%)=Number of spontaneous alternation behaviors/(Total number of entries−2)×100.
If a significant difference between the normal group and the control group (Student's T test) was approved in the alternation rate (%), it was considered to have learning disorder by the administration of Scoporamine or MK-801. By carrying out a Dunnett's test on the group administered with the test compound with respect to the control group, the presence or absence of effect of the test compound on learning disorder was evaluated. For each assay, it was considered that there was a tendency when p<0.10 and there was a significant difference when p<0.05.

Male ICR mouse [2] = experiment: Hyperactivity (quantity of motion) induced by methamphetamine (MAP) in mice; type: in vivo; conditions: oral dose 0.1 mg/kg; MAP 1.5 mg/kg; P<0.05
Protocol: as §1, §2
For a normal mouse (a mouse administered with physiological saline) and a mouse administered with a drug for increasing the quantity of motion, a Student's T test was performed for evaluation for each interval. For a group administered with the test compound, an assay was performed using a solvent (vehicle) group and a Dunnett's T test. […]

SMILES	pKi (human 5-HT5A receptor; [3H]5-CT binding)	also measured
NC(N)=NC(=O)c1ccc2ncc(Cl)c(-c3ccc(F)cc3)c2c1 [Example 73]	8.00 to 9.00	hyperactivity induced by MK-801 (Male ICR mouse [1]; oral dose 0.1 mg/kg): significantly inhibited
NC(N)=NC(=O)c1ccc2c(F)cnc(-c3c(F)cccc3F)c2c1 [Example 148]	–	hyperactivity induced by MK-801 (Male ICR mouse [1]; oral dose 0.03 mg/kg): significantly inhibited; spontaneous alternation behavior induced by Scoporamine (Male ddY mouse; oral dose 0.01 mg/kg): significantly inhibited; pKi (human 5-HT5A receptor; [3H]5-CT binding inhibition): 8.85; hyperactivity induced by MAP (Male ICR mouse [2]): significantly inhibited
NC(N)=NC(=O)c1ccc2c(F)cnc(-c3c(F)cncc3F)c2c1 [Example 157]	8.00 to 9.00	hyperactivity induced by MK-801 (Male ICR mouse [1]; oral dose 0.03 mg/kg): significantly inhibited; spontaneous alternation behavior induced by Scoporamine (Male ddY mouse; oral dose 0.001 mg/kg): significantly inhibited; pKi (human 5-HT5A receptor; [3H]5-CT binding inhibition): 8.28
NC(N)=NC(=O)c1ccc2c(F)cnc(-c3ccccc3F)c2c1 [Example 160]	–	hyperactivity induced by MK-801 (Male ICR mouse [1]; oral dose 0.01 mg/kg): significantly inhibited; spontaneous alternation behavior induced by Scoporamine (Male ddY mouse; oral dose 0.001 mg/kg): significantly inhibited; pKi (human 5-HT5A receptor; [3H]5-CT binding inhibition): 8.48
NC(N)=NC(=O)c1ccc2c(Cl)cnc(-c3ccccc3F)c2c1 [Example 175]	8.00 to 9.00	–
NC(N)=NC(=O)c1ccc2c(F)cnc(-c3ccc(F)cc3)c2c1 [Example 190]	8.00 to 9.00	–
NC(N)=NC(=O)c1ccc2c(F)cnc(-c3ccc(Cl)cc3)c2c1 [Example 191]	7.00 to 8.00	–
Cc1cnc(-c2ccccc2F)c2cc(C(=O)N=C(N)N)ccc12 [Example 192]	8.00 to 9.00	hyperactivity induced by MK-801 (Male ICR mouse [1]; oral dose 0.01 mg/kg): significantly inhibited; spontaneous alternation behavior induced by Scoporamine (Male ddY mouse; oral dose 0.003 mg/kg): significantly inhibited; pKi (human 5-HT5A receptor; [3H]5-CT binding inhibition): 8.74
NC(N)=NC(=O)c1ccc2c(Cl)cnc(-c3ccc(Cl)cc3F)c2c1 [Example 195]	8.00 to 9.00	–
NC(N)=NC(=O)c1ccc2c(C(F)(F)F)cnc(-c3c(F)cccc3F)c2c1 [Example 196]	7.00 to 8.00	–
COc1cnc(-c2c(F)cccc2F)c2cc(C(=O)N=C(N)N)ccc12 [Example 197]	8.00 to 9.00	–
NC(N)=NC(=O)c1ccc2c(Cl)cnc(C3CC3)c2c1 [Example 198]	8.00 to 9.00	–
NC(N)=NC(=O)c1ccc2c(F)cnc(-c3cccc(Cl)c3O)c2c1 [Example 199]	7.00 to 8.00	–
NC(N)=NC(=O)c1ccc2c(F)cnc(-c3cccc(F)c3Cl)c2c1 [Example 200]	8.00 to 9.00	–
NC(N)=NC(=O)c1ccc2c(F)cnc(-c3cccc(Cl)c3F)c2c1 [Example 201]	8.00 to 9.00	–
COc1cc(F)ccc1-c1ncc(F)c2ccc(C(=O)N=C(N)N)cc12 [Example 202]	7.00 to 8.00	–

SMILES	pKi (human 5-HT5A receptor; [3H]5-CT binding)	also measured
COc1cccc(Cl)c1-c1ncc(F)c2ccc(C(=O)N=C(N)N)cc12 [Example 203]	8.00 to 9.00	–
COc1cc(Cl)ccc1-c1ncc(F)c2ccc(C(=O)N=C(N)N)cc12 [Example 204]	7.00 to 8.00	–
NC(N)=NC(=O)c1ccc2c(F)cnc(-c3cccc(F)c3F)c2c1 [Example 205]	7.00 to 8.00	–
Cc1cnc(-c2c(F)cccc2Cl)c2cc(C(=O)N=C(N)N)ccc12 [Example 206]	8.00 to 9.00	–
NC(N)=NC(=O)c1ccc2c(Cl)cnc(-c3ccc(F)cc3F)c2c1 [Example 211]	8.00 to 9.00	pKi (human 5-HT5A receptor; [3H]5-CT binding inhibition): 8.64
NC(N)=NC(=O)c1ccc2c(Cl)cnc(-c3cc(F)c(F)cc3F)c2c1 [Example 212]	7.00 to 8.00	–
Cc1ccccc1-c1ncc(Cl)c2ccc(C(=O)N=C(N)N)cc12 [Example 213]	8.00 to 9.00	–
NC(N)=NC(=O)c1ccc2c(Cl)cnc(-c3cc(F)ccc3F)c2c1 [Example 214]	8.00 to 9.00	–
NC(N)=NC(=O)c1ccc2c(C(F)F)cnc(-c3ccccc3F)c2c1 [Example 215]	7.00 to 8.00	–
NC(N)=NC(=O)c1ccc2c(F)cnc(-c3c(O)cccc3F)c2c1 [Example 216]	8.00 to 9.00	–
Cc1cccc(C)c1-c1ncc(Cl)c2ccc(C(=O)N=C(N)N)cc12 [Example 222]	8.00 to 9.00	–
NC(N)=NC(=O)c1ccc2c(CO)cnc(-c3c(F)cccc3F)c2c1 [Example 224]	7.00 to 8.00	–
NC(N)=NC(=O)c1ccc2cccc(-c3ccccc3)c2n1 [Example 225]	6.52 to 7.00	–
NC(N)=NC(=O)c1ccc2cccc(-c3c(F)cc(F)cc3F)c2n1 [Example 226]	8.00 to 9.00	–
NC(N)=NC(=O)c1cnc2cccc(-c3c(F)cc(F)cc3F)c2c1 [Example 227]	7.00 to 8.00	–
NC(N)=NC(=O)c1ccc2cncc(-c3ccc(F)cc3F)c2c1 [Example 228]	7.00 to 8.00	–
